Where two headings read alike, the source gives them in different places.
Columns and labels:
[1] = test system: LNCaP/AR cells; test: Inhibition of proliferation of LNCaP/AR prostate cancer cells (CCK-8); assay type: cell-based
[2] = target: T1, androgen receptor (AR) (Homo sapiens, UniProt P10275); test: Degradation of androgen receptor (AR) protein in VCaP cells by ELISA; assay type: cell-based; details: for inhibition at 0.1 µM: read-out: % degradation
T1 sequence (P10275 1-920): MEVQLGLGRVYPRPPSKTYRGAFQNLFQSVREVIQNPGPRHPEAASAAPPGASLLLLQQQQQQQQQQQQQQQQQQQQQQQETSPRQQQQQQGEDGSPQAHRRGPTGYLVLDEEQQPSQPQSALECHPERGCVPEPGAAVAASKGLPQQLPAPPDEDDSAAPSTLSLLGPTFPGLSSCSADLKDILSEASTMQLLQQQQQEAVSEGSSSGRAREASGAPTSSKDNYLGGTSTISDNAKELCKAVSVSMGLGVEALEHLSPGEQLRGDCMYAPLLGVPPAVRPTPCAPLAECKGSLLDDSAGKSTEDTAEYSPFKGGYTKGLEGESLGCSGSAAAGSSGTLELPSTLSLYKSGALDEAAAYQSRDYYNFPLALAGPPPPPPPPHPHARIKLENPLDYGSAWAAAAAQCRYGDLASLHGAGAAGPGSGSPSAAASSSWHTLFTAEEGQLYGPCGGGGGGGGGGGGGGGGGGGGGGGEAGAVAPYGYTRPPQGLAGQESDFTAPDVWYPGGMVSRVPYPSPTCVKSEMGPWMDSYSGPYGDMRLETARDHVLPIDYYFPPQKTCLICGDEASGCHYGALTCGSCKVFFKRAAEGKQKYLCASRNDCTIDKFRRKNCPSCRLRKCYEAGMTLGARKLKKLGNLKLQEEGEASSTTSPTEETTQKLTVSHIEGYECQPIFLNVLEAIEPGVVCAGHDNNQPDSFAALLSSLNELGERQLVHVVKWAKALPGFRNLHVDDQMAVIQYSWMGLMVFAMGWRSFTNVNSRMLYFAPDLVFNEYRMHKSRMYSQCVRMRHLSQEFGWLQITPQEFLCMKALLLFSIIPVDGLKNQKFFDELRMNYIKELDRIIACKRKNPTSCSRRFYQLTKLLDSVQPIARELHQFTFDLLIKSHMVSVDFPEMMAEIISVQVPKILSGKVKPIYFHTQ

[3] = proliferation of LNCap/AR cells, 6 days, CCK-8, read-out: IC50
[4] = percentage of degraded AR at 100 nM, VCaP cells, 16 h, ELISA
[5] = 144 h, proliferation of LNCap/AR cells, 6 days, CCK-8, read-out: IC50

Molecule | IC50 [1, 5] | inhibition at 0.1 µM [2, 4] | other results
Cc1ncsc1-c1ccc([C@H](C)NC(=O)[C@@H]2C[C@@H](O)CN2C(=O)[C@@H](NC(=O)Cn2cc(C#Cc3ccc4c(c3)CN(C3C(C)(C)C(Oc5ccc(C#N)c(Cl)c5)C3(C)C)C4=O)cn2)C(C)(C)C)cc1 (stereo partly drawn) [Compound 11] |  |  | IC50 [1, 3]: < 100 nM; % degradation [2, 4]: B (79%-50%)
CC(=O)O[C@@H]1C[C@@H](C(=O)N[C@@H](C)c2ccc(-c3scnc3C)cc2)N(C(=O)[C@@H](NC(=O)COCCCCCNc2ccc(NC(=O)N[C@H]3C(C)(C)[C@H](Oc4ccc(C#N)c(Cl)c4)C3(C)C)cc2)C(C)(C)C)C1 [Compound 1, (3R,5S)-1-((S)-2-(2-((5-((4-(3-((1R,3R)-3-(3-chloro-4-cyanophenoxy)-2,2,4,4-tetramethylcyclobutyl)ureido)phenyl)amino)pentyl)oxy)acetylamino)-3,3-dimethylbutyryl)-5-(((S)-1-(4-(4-methylthiazol-5-yl))phenyl)ethyl)carbamoyl) pyrrolidin-3-yl acetate] | > 1000 nM | < 25% | 
(2R,4R)-1-((S)-2-(2-((6-(2-((1R,3R)-3-(3-chloro-4-cyanophenoxy)-2,2,4,4-tetramethylcyclobutyl)-3-oxoisoindolin-5-yl)hex-5-yn-1-yl)oxy)acetylamino)-3,3-dimethylbutyryl)-4-hydroxy-N-((S)-1-(4-(4-methylthiazol-5-yl)phenyl)ethyl) pyrrolidine-2-carboxamide [Compound 5] |  |  | IC50 [1, 3]: < 100 nM; % degradation [2, 4]: C (49%-25%)
[2H]C([2H])([2H])N(C(=O)c1ccc(C#CCCOCC(=O)N[C@H](C(=O)N2C[C@H](O)C[C@H]2C(=O)N[C@@H](C)c2ccc(-c3scnc3C)cc2)C(C)(C)C)cc1)[C@H]1C(C)(C)[C@H](Oc2ccc(C#N)c(Cl)c2)C1(C)C [Compound 26] | < 100 nM | < 25% | 
N#Cc1ccc(O[C@H]2CC[C@H](N3Cc4nc(N5CCC(CN6CCN(c7ccc8c(c7)C(=O)N(C7CCC(=O)NC7=O)C8=O)CC6)CC5)ccc4C3=O)CC2)cc1Cl (stereo partly drawn) [Compound 57] |  |  | IC50 [1]: > 1000 nM; % degradation [2]: D (key: A: >80%; B: 79%-50%; C: 49%-25%; D: <25%)
[2H]C([2H])([2H])N(C(=O)c1ccc(C#CCCCCOCC(=O)N[C@H](C(=O)N2C[C@H](O)C[C@H]2C(=O)N[C@@H](C)c2ccc(-c3scnc3C)cc2)C(C)(C)C)nc1)[C@H]1C(C)(C)[C@H](Oc2ccc(C#N)c(Cl)c2)C1(C)C [Compound 33] | 100 to 500 nM | 0% | 
Cc1ncsc1-c1ccc(C2(NC(=O)C3C[C@@H](O)CN3C(=O)[C@@H](NC(=O)COCCCCCNc3ccc(C(=O)N[C@H]4C(C)(C)[C@H](Oc5ccc(C#N)c(Cl)c5)C4(C)C)cc3)C(C)(C)C)CC2)cc1 (stereo partly drawn) [Compound 47] | < 100 nM | 50 to 79% | 
(2S,4R)-1-((S)-2-(2-(4-(3-(2((1s,3s)-3-(3-chloro-4-cyanophenoxy)-2,2,4,4-tetramethylcyclobutyl)-1-oxoisoindolin-5-yl)prop-2-yn-1-yl)piperidin-1-yl)acetylamino)-3,3-dimethylbutyryl)-4-hydroxy-N-((S)-1-(4-(4-methylthiazol-5-yl)phenyl)ethyl)pyrrolidine-2-carboxamide [Compound 39] |  |  | IC50 [1, 3]: < 100 nM; % degradation [2]: C (key: A: >80%; B: 79%-50%; C: 49%-25%; D: <25%)
N#Cc1ccc(O[C@H]2CC[C@H](N3Cc4nc(N5CC[C@@H](CN6CCN(c7cc8c(cc7F)C(=O)N(C7CCC(=O)NC7=O)C8)CC6)C5)ccc4C3=O)CC2)cc1Cl (stereo partly drawn) [Compound 55] | 100 to 500 nM | 25 to 49% | 
Cc1ncsc1-c1ccc([C@H](C)NC(=O)C2C[C@@H](O)CN2C(=O)[C@@H](NC(=O)COCCN2CCN(c3ccc4c(c3)CN([C@H]3C(C)(C)[C@H](Oc5ccc(C#N)c(Cl)c5)C3(C)C)C4=O)CC2)C(C)(C)C)cc1 (stereo partly drawn) [Compound 3, (2S,4R)-1-((S)-2-(2-(2-(4-(2-((1R,3R)-3-(3-chloro-4-cyanophenoxy)-2,2,4,4-tetramethylcyclobutyl)-1-oxoisoindolin-5-yl)piperazin-1-yl)ethoxy)acetylamino)-3,3-dimethylbutyryl)-4-hydroxy-N-((S)-1-(4-(4-methylthiazol-5-yl)phenyl)ethyl)pyrrolidine-2-carboxamide] | 100 to 500 nM | 50 to 79% | 
Cc1ncsc1-c1ccc([C@H](C)NC(=O)[C@@H]2C[C@@H](O)CN2C(=O)[C@@H](NC(=O)COC2CN(CCC#Cc3ccc4c(c3)CN([C@H]3C(C)(C)[C@H](Oc5ccc(C#N)c(Cl)c5)C3(C)C)C4=O)C2)C(C)(C)C)cc1 [Compound 32, (2s,4r)-1-((s)-2-(2-((1-(4-(2-((1r,3r)-3-(3-chloro-4-cyanophenoxy)-2,2,4,4-tetramethylcyclobutyl)-1-oxoheteroin-5-yl)-3-butyne-1-yl)azetidine-3-yl)oxy)acetamido)-3,3-dimethylbutyryl)-4-hydroxy-N-((S)-1-(4-(4-methylthiazol-5-yl)phenyl)ethyl)pyrrolidine-2-carboxamide] | < 100 nM | 50 to 79% | 
N#Cc1ccc(O[C@H]2CC[C@H](N3Cc4nc(N5CCC(OC6CCN(c7ccc8c(c7)C(=O)N(C7CCC(=O)NC7=O)C8=O)CC6)CC5)ccc4C3=O)CC2)cc1Cl (stereo partly drawn) [Compound 60, 2-chloro-4-(((1r,4r)-4-(2-(4-((1-(2-(2,6-dioxopiperidin-3-yl)-1,3-dioxoisoindolin-5-yl)piperidine-4-yl)oxy)piperidin-1-yl)-5-oxo-5H-pyrrolo[3,4-b]pyridin-6(7H)-yl)cyclohexyl)oxy)benzonitrile] | > 1000 nM | < 25% | 
Cc1ncsc1-c1ccc([C@H](C)NC(=O)[C@@H]2C[C@@H](O)CN2C(=O)[C@@H](NC(=O)CN2CCC(CN3CCN(c4ccc(C(=O)NC5CC6(C)OC5(C)[C@@H]5C(=O)N(c7ccc(C#N)c(Cl)c7)C(=O)[C@@H]56)cn4)CC3)CC2)C(C)(C)C)cc1 (stereo partly drawn) [Compound 18, N-((3aR,4R,7R,7aS)-2-(3-chloro-4-benzonitrile)-4,7-dimethyl-1,3dioxooctahydro-1H-4,7-epoxyisoindolin-5-yl)-6-(4-((1-(2-(((S)-1-((2S,4R)-4-hydroxy-2-(((S)-1-(4-(4-methylthiazol-5-yl)phenyl)ethyl)carbamoyl)pyrrolidin-1-yl)-3,3-dimethyl-1-oxobutan-2-yl)amino)-2-oxoethyl)piperidine-4-yl)methyl)piperazin-1-yl)nicotinamide] |  |  | IC50 ([1]; LNCaP/AR, 144 h): < 100 nM; inhibition at 0.1 µM ([2]; VCaP, 16 h): > 80%
CC(C#Cc1ccc2c(c1)CN(C1C(C)(C)C(Oc3ccc(C#N)c(Cl)c3)C1(C)C)C2=O)N1CCN(c2cc3c(cc2F)C(=O)N(C2CCC(=O)NC2=O)C3=O)CC1 (stereo not drawn) [Compound 199, 2-chloro-4-((1r,3r)-3-(5-(4-(2,6-dioxopiperidin-3-yl)-6-fluoro-1,3-dioxoisoindolin-5-yl)piperazin-1-yl)but-1-yn-1-yl)-1-oxoisoindolin-2-yl)-2,4,4-tetramethylcyclobutoxy)benzonitrile] |  |  | IC50 [1, 3]: > 1000 nM; % degradation [2, 4]: D (<25%)
Cc1ncsc1-c1ccc([C@H](C)NC(=O)[C@@H]2C[C@@H](O)CN2C(=O)[C@@H](NC(=O)CN2CC(CC#Cc3ccc4c(c3)CN([C@H]3C(C)(C)[C@H](Oc5ccc(C#N)c(Cl)c5)C3(C)C)C4=O)C2)C(C)(C)C)cc1 [Compound 43] | < 100 nM | 50 to 79% | 
[2H]C([2H])([2H])N(C(=O)c1ccc(N2CCC(CN3CCN(c4cc5c(cc4F)C(=O)N(C4CCC(=O)NC4=O)C5)CC3)CC2)nc1)[C@H]1C(C)(C)[C@H](Oc2ccc(C#N)c(Cl)c2)C1(C)C (stereo partly drawn) [Compound 216, N-((1r,3r)-3-(3-chloro-4-cyanophenoxy)-2,2,4,4-tetramethylcyclobutyl)-6-(4-((4-(2-(2,6-dioxopiperidin-3-yl)-6-fluoro-1-oxoisoindolin-5-yl)piperazin-1-yl)methyl)piperidin-1-yl)-N-(methyl-d3)nicotinamide] | 100 to 500 nM | > 80% | 
Cc1ncsc1-c1ccc([C@H](C)NC(=O)[C@@H]2C[C@@H](O)CN2C(=O)[C@@H](NC(=O)COCCCN2CCN(c3ccc4c(c3)CN(C3C(C)(C)C(Oc5ccc(C#N)c(Cl)c5)C3(C)C)C4=O)CC2)C(C)(C)C)cc1 (stereo partly drawn) [Compound 31] | < 100 nM | 50 to 79% | 
Cc1ncsc1-c1ccc([C@H](C)NC(=O)[C@@H]2C[C@@H](O)CN2C(=O)[C@@H](NC(=O)COCCOCC#Cc2ccc3c(c2)CN([C@H]2C(C)(C)[C@H](Oc4ccc(C#N)c(Cl)c4)C2(C)C)C3=O)C(C)(C)C)cc1 [Compound 13] |  |  | IC50 [1, 3]: < 100 nM; % degradation [2, 4]: B (79%-50%)

Reference: patent US20230091225A1, “Bifunctional chimeric heterocyclic compounds for targeted degradation of androgen receptors and use thereof” (HINOVA PHARMACEUTICALS INC., priority 2019, published 2023)
